Columns and labels:
[1] = biological target: T1, Sodium-dependent dopamine transporter (Rattus norvegicus, UniProt P23977); assay: Binding affinity was determined against cocaine binding site by measuring the ability of compound to displace bound [3H]dopamine from rat caudate-putamen tissue; assay type: tissue-based
[2] = biological target: T1, Sodium-dependent dopamine transporter; assay: Tested for its ability to inhibit high affinity uptake of [3H]dopamine into rat caudate-putamen tissue; assay type: tissue-based
[3] = biological target: T1, Sodium-dependent dopamine transporter; assay: Binding affinity was determined against cocaine receptor by measuring the ability of compound to displace bound [3H]-3 from rat caudate-putamen tissue; assay type: tissue-based
[4] = Tested for its ability to inhibit high affinity uptake of [3H]-dopamine into rat caudate-putamen tissue; assay type: functional, tissue-based

T1 sequence (P23977 whole entry): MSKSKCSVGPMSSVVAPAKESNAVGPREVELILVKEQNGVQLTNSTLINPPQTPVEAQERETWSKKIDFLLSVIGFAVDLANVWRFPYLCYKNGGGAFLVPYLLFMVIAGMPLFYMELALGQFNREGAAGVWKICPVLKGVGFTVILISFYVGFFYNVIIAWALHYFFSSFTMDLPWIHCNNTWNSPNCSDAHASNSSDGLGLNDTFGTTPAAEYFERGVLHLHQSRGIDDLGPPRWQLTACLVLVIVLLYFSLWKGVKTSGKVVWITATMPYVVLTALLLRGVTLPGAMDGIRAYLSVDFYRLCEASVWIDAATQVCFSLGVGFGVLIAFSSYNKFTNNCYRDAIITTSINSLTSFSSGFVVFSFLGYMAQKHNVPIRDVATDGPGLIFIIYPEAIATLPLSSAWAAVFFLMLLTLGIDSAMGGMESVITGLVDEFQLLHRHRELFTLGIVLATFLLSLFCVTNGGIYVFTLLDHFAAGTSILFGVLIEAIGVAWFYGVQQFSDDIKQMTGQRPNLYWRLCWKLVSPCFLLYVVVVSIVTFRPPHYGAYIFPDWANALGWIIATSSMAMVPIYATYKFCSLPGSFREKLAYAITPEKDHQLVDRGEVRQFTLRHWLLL

Row | SMILES | Ki [1] [nM] | IC50 [2] [nM] | Ki [3] [nM] | IC50 [4] [nM]
1 | COC(=O)[C@@H]1C2CC[C@H](C[C@@H]1c1ccccc1)N2C | 33 | 373 | 314 | 
2 | CN1C2CC[C@@H]1C[C@H](c1ccccc1)C2CC/C=C/C(=O)O (stereo partly drawn) | 20 |  |  | 203
3 | CN1C2CC[C@@H]1C[C@H](c1ccccc1)C2CCCO (stereo partly drawn) | 11 | 64 |  | 
4 | COC(=O)CCC1C2CC[C@H](C[C@@H]1c1ccccc1)N2C (stereo partly drawn) | 23 | 166 |  | 
5 | COC(=O)/C=C/C1C2CC[C@H](C[C@@H]1c1ccccc1)N2C (stereo partly drawn) | 22 | 123 |  | 
6 | CN1C2CC[C@@H]1C[C@H](c1ccccc1)C2/C=C/CO (stereo partly drawn) | 26 |  |  | 159

Source: ChEMBL document CHEMBL1127400 (J Med Chem, 1994)
